Laboratory results published in patent publication US11464749B2, “Bismuth-thiol compositions and methods of use” (Microbion Corporation, priority 2018, dated 2022).
Values after ≈ are worked out from the molar mass of the structure shown. Values joined by “and” are separate entries in the source; they are usually repeats but may differ in a detail not shown here. Identical values can stand only once. Like-named read-outs stand apart in the source and are kept apart here.

Assays:
C. glabrata = assay: Broth microdilution MIC, yeast (Example 11); type: cell-based; details: FLU^R
C. parapsilosis [1] = details: C. parapsilosis MMX 2323 (ATCC 22019), cited from earlier work
C. parapsilosis [2] = assay: Broth microdilution MIC, yeast (Example 11); type: cell-based
C. tropicalis = assay: Broth microdilution MIC, yeast (Example 11); type: cell-based; details: FLU^R
C. albicans = assay: Broth microdilution MIC, yeast (Example 11); type: cell-based; details: Sensitive
[3] = tested on: B. multivorans (cepacia complex); assay: MIC against CF bacterial strains (Example 5); type: cell-based; details: Burkholderia multivorans, strain BC5b
Protocol: (§1) A range of CF-isolated strains of Mycobacterium avium and Mycobacterium abscessus were included; which allows for understanding of the activity against non-tubercular Mycobacteria (NTM). Two distinct bismuth-thiol compounds were evaluated, including BisEDT and BisBDT. […] The CF-isolates of greater clinical relevance, including both M abscessus spp. and Burkholderia spp., were both consistently found to be much more susceptible to BisEDT and BisBDT.

[4] = tested on: B. cepacia (cepacia complex); assay: MIC against CF bacterial strains (Example 5); type: cell-based; details: Burkholderia cepacia, strain BC17
Protocol: as §1

Burkholderia spp. = assay: organism not typed; type: cell-based; details: read-out: Drug B MIC
B. cenocepacia = assay: FIC checkerboard assay; type: cell-based; details: for MIC: Burkholderia cenocepacia, read-out: Drug B MIC
P. aeruginosa [5] = assay: MIC against CF bacterial strains (Example 5); details: Pseudomonas aeruginosa
P. aeruginosa [6] = assay: FIC checkerboard assay; type: cell-based; details: Pseudomonas aeruginosa, read-out: Drug B MIC
B. cepacia = assay: FIC checkerboard assay; type: cell-based; details: Burkholderia cepacia, read-out: Drug B MIC
M. abscessus complex = assay: MIC against CF bacterial strains (Example 5); type: cell-based, Mycobacterium abscessus; details: Mycobacteroides abscessus, read-out: MIC
Protocol: as §1

S. maltophilia = assay: MIC against CF bacterial strains (Example 5); details: Stenotrophomonas maltophilia
[7] = tested on: B. cenocepacia (B cepacia complex); assay: MIC against CF bacterial strains (Example 5)
Achromobacter spp. = assay: MIC against CF bacterial strains (Example 5)
S. aureus ATCC 29213 = details: control strain ATCC 29213; per CLSI M100-S24 or provided by Microbion; cited from earlier work
[8] = Particle size distribution of exposure aerosols (In-Tox Mercer Impactor); details: rat efficacy study exposure atmospheres

With `C[C@@H]1[C@H](O)[C@@H](C)/C=C/C=C/C=C/C=C/C=C/C=C/C=C/[C@H](O[C@@H]2O[C@H](C)[C@@H](O)[C@H](N)[C@@H]2O)C[C@@H]2O[C@](O)(C[C@@H](O)C[C@@H](O)[C@H](O)CC[C@@H](O)C[C@@H](O)CC(=O)O[C@H]1C)C[C@H](O)[C@H]2C(=O)O` [Amphotericin B] the MIC (C. glabrata; C. glabrata MMX 7086, 24 hr) was 0.5 µg/mL (≈ 0.541 µM), the MIC (C. glabrata; C. glabrata MMX 7086, 48 hr) was 1 µg/mL (≈ 1.08 µM) and the MIC (C. glabrata; C. glabrata MMX 7318, 24 hr) was 0.5 µg/mL (≈ 0.541 µM). The MIC (C. glabrata; C. glabrata MMX 7318, 48 hr) was 1 µg/mL (≈ 1.08 µM), the “MIC, CLSI QC range” value (C. parapsilosis [1]; 48 hr) was 0.5 to 4 µg/mL and the MIC (C. parapsilosis [2]; C. parapsilosis MMX 2323 (ATCC 22019), QC, 24 hr) was 0.5 µg/mL (≈ 0.541 µM). It also gave an MIC (C. parapsilosis [2]; C. parapsilosis MMX 2323 (ATCC 22019), QC, 48 hr) of 1 µg/mL (≈ 1.08 µM), an MIC (C. parapsilosis [2]; C. parapsilosis MMX 7370, FLU^R, 24 hr) of 0.5 µg/mL (≈ 0.541 µM) and an MIC (C. parapsilosis [2]; C. parapsilosis MMX 7370, FLU^R, 48 hr) of 1 µg/mL (≈ 1.08 µM). It also gave an MIC (C. tropicalis; C. tropicalis MMX 7247, 24 hr) of 0.5 µg/mL (≈ 0.541 µM), an MIC (C. tropicalis; C. tropicalis MMX 7247, 48 hr) of 1 µg/mL (≈ 1.08 µM) and an MIC (C. tropicalis; C. tropicalis MMX 7248, 24 hr) of 0.5 µg/mL (≈ 0.541 µM). It also gave an MIC (C. tropicalis; C. tropicalis MMX 7248, 48 hr) of 1 µg/mL (≈ 1.08 µM), an MIC (C. albicans; C. albicans MMX 7055, 24 hr) of 0.25 µg/mL (≈ 0.271 µM) and an MIC (C. albicans; C. albicans MMX 7055, 48 hr) of 0.5 µg/mL (≈ 0.541 µM).

In the case of `OC(Cn1cncn1)(Cn1cncn1)c1ccc(F)cc1F` [fluconazole, Fluconazole, reference compound], the MIC (C. glabrata; Nakaseomyces glabratus, 24 h, C. glabrata MMX 7086, 24 hr, read-out: MIC) is reported as 32 µg/mL (≈ 104 µM), the MIC (C. glabrata; Nakaseomyces glabratus, 24 h, C. glabrata MMX 7318, 24 hr, read-out: MIC) is reported as > 64 µg/mL and the MIC (C. glabrata; Nakaseomyces glabratus, 48 h, C. glabrata MMX 7086, 48 hr, read-out: MIC) is reported as 64 µg/mL (≈ 209 µM). For the same molecule, the MIC (C. glabrata; Nakaseomyces glabratus, 48 h, C. glabrata MMX 7318, 48 hr, read-out: MIC) was > 64 µg/mL, the “MIC, CLSI QC range” value (C. parapsilosis [1]; 24 hr) was 0.5 to 4 µg/mL and the “MIC, CLSI QC range” value (C. parapsilosis [1]; 48 hr) was 1 to 4 µg/mL. For the same molecule, the MIC (C. parapsilosis [2]; Lodderomyces parapsilosis, 24 h, C. parapsilosis MMX 7370, FLU^R, 24 hr, read-out: MIC (converted)) was 32 µg/mL (≈ 104 µM), the MIC (C. parapsilosis [2]; Lodderomyces parapsilosis, 24 h, C. parapsilosis MMX 7555, FLU^R, 24 hr, read-out: MIC (converted)) was 32 µg/mL (≈ 104 µM) and the MIC (C. parapsilosis [2]; Lodderomyces parapsilosis, 48 h, C. parapsilosis MMX 7370, FLU^R, 48 hr, read-out: MIC (converted)) was 32 µg/mL (≈ 104 µM). The MIC (C. parapsilosis [2]; Lodderomyces parapsilosis, 48 h, C. parapsilosis MMX 7555, FLU^R, 48 hr, read-out: MIC (converted)) was 64 µg/mL (≈ 209 µM), the MIC (C. parapsilosis [2]; Lodderomyces parapsilosis, ATCC22019, 24 h, C. parapsilosis MMX 2323 (ATCC 22019), QC, 24 hr, read-out: MIC (converted)) was 2 µg/mL (≈ 6.53 µM) and the MIC (C. parapsilosis [2]; Lodderomyces parapsilosis, ATCC22019, 48 h, C. parapsilosis MMX 2323 (ATCC 22019), QC, 48 hr, read-out: MIC (converted)) was 2 µg/mL (≈ 6.53 µM). For the same molecule, the MIC (C. tropicalis; Candida tropicalis, 24 h, C. tropicalis MMX 7247, 24 hr, read-out: MIC) was 64 µg/mL (≈ 209 µM), the MIC (C. tropicalis; Candida tropicalis, 24 h, C. tropicalis MMX 7248, 24 hr, read-out: MIC) was 32 µg/mL (≈ 104 µM) and the MIC (C. tropicalis; Candida tropicalis, 24 h, C. tropicalis MMX 7360, 24 hr, read-out: MIC) was 64 µg/mL (≈ 209 µM). For the same molecule, the MIC (C. tropicalis; Candida tropicalis, 48 h, C. tropicalis MMX 7247, 48 hr, read-out: MIC) was > 64 µg/mL, the MIC (C. tropicalis; Candida tropicalis, 48 h, C. tropicalis MMX 7248, 48 hr, read-out: MIC) was > 64 µg/mL and the MIC (C. tropicalis; Candida tropicalis, 48 h, C. tropicalis MMX 7360, 48 hr, read-out: MIC) was > 64 µg/mL. The MIC (C. albicans; Candida albicans, 24 h, C. albicans MMX 7039, 24 hr, read-out: MIC) was 0.5 µg/mL (≈ 1.63 µM), the MIC (C. albicans; Candida albicans, 24 h, C. albicans MMX 7055, 24 hr, read-out: MIC) was 0.25 µg/mL (≈ 0.816 µM) and the MIC (C. albicans; Candida albicans, 48 h, C. albicans MMX 7039, 48 hr, read-out: MIC) was 0.5 µg/mL (≈ 1.63 µM). It also gave an MIC (C. albicans; Candida albicans, 48 h, C. albicans MMX 7055, 48 hr, read-out: MIC) of 0.5 µg/mL (≈ 1.63 µM).

In the case of `NCC[C@H](O)C(=O)N[C@@H]1C[C@H](N)[C@@H](O[C@H]2O[C@H](CN)[C@@H](O)[C@H](O)[C@H]2O)[C@H](O)[C@H]1O[C@H]1O[C@H](CO)[C@@H](O)[C@H](N)[C@H]1O` [Amikacin, reference compound], the MIC [3] is reported as > 64 µg/mL, the MIC [4] is reported as > 64 µg/mL and the MIC (Burkholderia spp.) is reported as > 256 µg/mL. For the same molecule, the FICB (B. cenocepacia; B. cenocepacia 548, FIC of Amikacin in combination with BisEDT, per checkerboard row) was 0.25 and 0.5, the FICB (B. cenocepacia; B. cenocepacia 813, FIC of Amikacin in combination with BisEDT, per checkerboard row) was 0.5 and 1 and the MIC (B. cenocepacia; B. cenocepacia 548, Amikacin alone (panel with BisEDT)) was 128 µg/mL. For the same molecule, the MIC (B. cenocepacia) was > 256 µg/mL, the MIC (P. aeruginosa [5]) was 16 µg/mL (≈ 27.3 µM) and the MIC (P. aeruginosa [5]; strain AGR14, Multi-drug resistant) was > 64 µg/mL. For the same molecule, the MIC (P. aeruginosa [5]; strain MR14, Multi-drug resistant) was > 64 µg/mL, the MIC (P. aeruginosa [6]; Amikacin alone, FIC panel with BisEDT, P. aeruginosa 6322) was 64 µg/mL and the MIC (P. aeruginosa [6]; P. aeruginosa 6977, Amikacin alone (checkerboard with BisEDT)) was 16 µg/mL. For the same molecule, the MIC (P. aeruginosa [6]; P. aeruginosa 7745, Amikacin alone (checkerboard with BisEDT)) was 4 µg/mL, the MIC (P. aeruginosa [6]; P. aeruginosa 8798, Amikacin alone (checkerboard with BisEDT)) was 128 µg/mL and the MIC (P. aeruginosa [6]; P. aeruginosa 9108, Amikacin alone (checkerboard with BisEDT)) was 4 µg/mL. The MIC (B. cepacia; B. cepacia 546, Amikacin alone (checkerboard with BisEDT)) was 64 µg/mL, the MIC (B. cepacia; B. cepacia 1793, Amikacin alone (panel with BisEDT)) was 32 µg/mL and the MIC (M. abscessus complex; AMT0130-8, M abscessus/massiliense complex) was 16 µg/mL (≈ 27.3 µM). For the same molecule, the MIC (M. abscessus complex; AMT153-9, M abscessus/massiliense complex) was 32 µg/mL (≈ 54.6 µM), the MIC (M. abscessus complex; AMT0493-2, M abscessus/massiliense complex, Amikacin resistant) was > 64 µg/mL and the MIC (M. abscessus complex; ATCC19977, ATCC 19977, M abscessus/massiliense complex, Macrolide resistant (inducible)) was 8 µg/mL (≈ 13.7 µM). The MIC (S. maltophilia) was 64 µg/mL (≈ 109 µM), the MIC ([7]; Burkholderia cenocepacia) was > 64 µg/mL and the MIC ([7]; strain AU197) was >64 µg/mL. The MIC (Achromobacter spp.) was > 64 µg/mL, the MIC (Achromobacter spp.; Achromobacter) was 64 µg/mL (≈ 109 µM) and the “Expected MIC: goal (acceptable range)” value (S. aureus ATCC 29213) was 2 (1-4) mcg/mL.

For `NC[C@H]1O[C@H](O[C@H]2[C@H](O)[C@@H](O[C@H]3O[C@H](CO)[C@@H](O)[C@H](N)[C@H]3O)[C@H](N)C[C@@H]2N)[C@H](N)C[C@@H]1O` [Tobramycin, reference compound], the MIC (Burkholderia spp.) was > 256 µg/mL, the FICB (B. cenocepacia; B. cenocepacia 548, FIC of Tobramycin in combination with BisEDT, per checkerboard row) was 0.5 and the MICB (B. cenocepacia; B. cenocepacia 548, MIC of Tobramycin in combination with BisEDT, per checkerboard row) was 8 µg/mL and 16 µg/mL. The FICB (B. cenocepacia; B. cenocepacia 813, FIC of Tobramycin in combination with BisEDT, per checkerboard row) was 0.5 and 1, the MIC (B. cenocepacia; B. cenocepacia 548, Tobramycin alone (panel with BisEDT)) was 32 µg/mL and the MIC (B. cenocepacia; B. cenocepacia 813, Tobramycin alone (panel with BisEDT)) was 256 µg/mL. It also gave an MIC (P. aeruginosa [6]; P. aeruginosa 6977, Tobramycin alone (checkerboard with BisEDT)) of 128 µg/mL, an MIC (P. aeruginosa [6]; P. aeruginosa 7745, Tobramycin alone (checkerboard with BisEDT)) of 0.5 µg/mL and an MIC (P. aeruginosa [6]; P. aeruginosa 8798, Tobramycin alone (checkerboard with BisEDT)) of 0.016 µg/mL. It also gave an MIC (P. aeruginosa [6]; P. aeruginosa 9108, Tobramycin alone (checkerboard with BisEDT)) of 0.5 µg/mL, an MIC (P. aeruginosa [6]; Tobramycin alone, FIC panel with BisEDT, P. aeruginosa 6322) of 128 µg/mL and an MIC (B. cepacia; B. cepacia 546, Tobramycin alone (checkerboard with BisEDT)) of 32 µg/mL. The MIC (B. cepacia; B. cepacia 1793, Tobramycin alone (checkerboard with BisEDT)) was 16 µg/mL and the “MMAD of exposure aerosol” value [8] was 2.81 μm.
